Patent US7815900B1, “Use of C3-C5 monosaccharides to protect keratinous fibers” (L'Oréal S.A., priority 2000, dated 2010)

Tests used:
[1] = DSC doublet peak area (α-structure) of hair after heat cycles; details: for Doublet Peak Area, normalized: 5 cycles
Procedure: (§1) Normal blonde hair was bleached with Clairol Basic White Bleach (40 volume H2O2) for 20 min at standard room temperature and humidity. The bleached swatches were rinsed with tap water, and soaked in an excess of deionized water for 2 hours. The swatches were air-dried and equilibrated for 48 hours prior to further treatment. Some of the bleached swatches were subsequently “permed” using a Reforming Lotion (10% TGA, pH 8.8, 20 minutes) and then neutralized with 2% H2O2, pH 3 (5 minutes). The bleached/permed swatches were rinsed with tap water, and soaked in an excess of deionized water for 2 hours. The swatches were air-dried and equilibrated for 48 hours prior to further treatment. The swatches that were heat treated were treated with 0.06M solutions of hexoses and pentoses for 10 min at 45° C. and then were heated for 12 cycles. The swatches were rinsed after the heat application.
In the DSC tests, finely cut hair (4-5 mg) was crimped in an aluminum pan that was punctured prior to each run. The samples were heated from 25° C. to 300° C., at a scanning rate of 20° C./min, with 5 runs per treatment. The results were averaged.
(§2) Normal blonde hair was bleached with Clairol Basic White Bleach, 40 volume H2O2, for 20 min at room temperature. One batch of normal and bleached hair swatches underwent five heat cycles at 130° C., where one treatment cycle involved the following steps (1-4):
(§3) 1. The swatches were treated with 0.06 M solutions of monosaccharides in deionized water (about 1 wt %) for 10 min at 45° C.
(§4) 2. The treated swatches were blow-dried for 1 min.
(§5) 3. The heat was applied for 1 min in the form of a flat hair iron Windmere “Solid Gold” (130° C.).
(§6) 4. The swatches were rinsed and blot-dried with a paper-towel.
(§7) The treatment solutions included four pentoses (D-xylose, D-arabinose, D-lyxose, and D-ribose, 1% each) and one hexose (1.2% D-glucose). Deionized water was used as a control treatment. After the heat experiment, the hair was rinsed in water, air-dried, and equilibrated for 24 hours in the humidity chamber at 25° C. and 50% RH prior to further testing. These swatches are referred to as treated at 130° C.
(§8) A second batch of normal and bleached hair swatches were treated in a similar way and blow-dried, without application of the hot iron. The treatment was also repeated 5 times, the swatches from the second batch are referred to as treated at 45° C.
Normal blonde hair was subjected to 12 heat cycles, as described in Example 2, using the following treatment solutions: 0.1% D-Xylose (pentose), 0.1% D-Erythrose (tetrose), and 0.1% D-Glyceraldehyde (triose). Each of the C3 to C5 monosaccharides was effective in protecting or reducing the damage to the α-structure of the hair, as compared to water treatment (Table 15).
Normal blonde hair was subjected to 12 heat cycles, as described in Example 2, using 0.1 wt % of the pentose amine derivative, D-Lyxosylimine in deionized water.

[2] = Dry tensile strength (Instron) after heat cycles
Procedure: as §1
Tensile strength was determined using both the Instron (50 dry fibers per tests) and the Dia-Stron (100 wet fibers per test), with the stretching rate of 100 mm/min. The following parameters were determined: Young's Modulus (N/m^2), Work to stretch 25% (J/m^2); Extension to Break (degree of elongation) (%); Work to Break (J/m^2).
as §2, §3, §4, §5, §6, §7, §8
Both the bleached and the bleached/permed hair were subjected to heat treatment, as in Example 2. The heat treatment experiment involved 12 heat cycles including application of sugar or control solution before each heat application, and rinsing after the heat application. Deionized water was used as a control treatment.
After the heat experiment, the hair was rinsed in water, air-dried, and equilibrated for 24 h in the humidity chamber at 25° C. and 50% RH prior to further testing. The effect of the hexoses vs. pentoses on the dry tensile strength (INSTRON) and the alpha-structure (doublet peak area, DSC) was tested on the bleached hair (Table 13). The effect of a hexose (D-glucose) vs. a pentose (D-Xylose) on wet tensile strength (DIA-STRON) was tested both on the bleached and the bleached/permed hair (Table 14). Application of 0.06M solutions of pentoses protected the bleached and the bleached/permed hair against thermal damage (α-structure; wet and dry tensile strength).

[3] = DSC doublet peak area (α-structure) of hair after heat cycles; details: for Doublet Peak Area: bleached/permed hair after 12 heat cycles, 0.06 M solutions
Procedure: Normal blonde hair was bleached with Clairol Basic White Bleach (40 volume H2O2) for 20 min at standard room temperature and humidity. The bleached swatches were rinsed with tap water, and soaked in an excess of deionized water for 2 hours. The swatches were air-dried and equilibrated for 48 hours prior to further treatment. Some of the bleached swatches were subsequently “permed” using a Reforming Lotion (10% TGA, pH 8.8, 20 minutes) and then neutralized with 2% H2O2, pH 3 (5 minutes). The bleached/permed swatches were rinsed with tap water, and soaked in an excess of deionized water for 2 hours. The swatches were air-dried and equilibrated for 48 hours prior to further treatment. The swatches that were heat treated were treated with 0.06M solutions of hexoses and pentoses for 10 min at 45° C. and then were heated for 12 cycles. The swatches were rinsed after the heat application. In the DSC tests, finely cut hair (4-5 mg) was crimped in an aluminum pan that was punctured prior to each run. The samples were heated from 25° C. to 300° C., at a scanning rate of 20° C./min, with 5 runs per treatment. The results were averaged. Normal blonde hair was divided in two batches. The hair from the first batch was bleached with Clairol Basic White Bleach, 40 volume H2O2, for 20 min at room temperature and humidity. The hair from the second batch was first bleached as above, and then permed: Reforming lotion-10% Thioglycolic acid, pH 8.8, 20 min; neutralizer-2% hydrogen peroxide, 5 min. The oxidatively damaged hair was equilibrated for 24 hours prior to further testing. Both the bleached and the bleached/permed hair were subjected to heat treatment, as in Example 2. The heat treatment experiment involved 12 heat cycles including application of sugar or control solution before each heat application, and rinsing after the heat application. Deionized water was used as a control treatment. After the heat experiment, the hair was rinsed in water, air-dried, and equilibrated for 24 h in the humidity chamber at 25° C. and 50% RH prior to further testing. The effect of the hexoses vs. pentoses on the dry tensile strength (INSTRON) and the alpha-structure (doublet peak area, DSC) was tested on the bleached hair (Table 13). The effect of a hexose (D-glucose) vs. a pentose (D-Xylose) on wet tensile strength (DIA-STRON) was tested both on the bleached and the bleached/permed hair (Table 14). Application of 0.06M solutions of pentoses protected the bleached and the bleached/permed hair against thermal damage (α-structure; wet and dry tensile strength).

[4] = normal blonde hair, 5 cycles at 45° C., 0.06 M solutions
[5] = normal blonde hair, 45° C. (blow drying)
[6] = normal blonde hair, 130° C. (blow-drying + hot iron)
[7] = normal blonde hair, 5 heat cycles at 130° C., 0.06 M solutions
[8] = bleached hair after 12 heat cycles, 0.06 M solutions, n = 100 fibers
[9] = bleached hair, 5 heat cycles at 130° C., 0.06 M solutions, n = 50 fibers
[10] = dry bleached hair, 12 heat cycles, 0.06 M, INSTRON, n = 50 fibers
[11] = dry, bleached hair, 5 cycles at 45° C., 0.06 M solutions, n = 50 fibers

Structure (SMILES)	Doublet Peak Area [1, 4]	Doublet Peak Area, normalized [1, 5]	Doublet Peak Area, normalized [1, 6]	Doublet Peak Area [1, 7]	Work 25% (Dry) [2, 8]	Work 25% (Dry) [2, 9]	Extension-Break [2, 10]	Work 25% [2, 10]	Work-Break [2, 10]	Young's Modulus [2, 10]	Work 25% [2, 11]	Doublet Peak Area [3]	Normalized area ([1]; normal blonde hair after 12 heat cycles, 1% in water)	Doublet Peak Area ([1]; normal blonde hair, 0.1 wt % solutions, 12 heat cycles at 130° C.)	protection of the hair structure as compared to water (DSC), in words ([1]; normal blonde hair, 12 heat cycles, 1% in water)	protection of dry tensile strength, in words ([2]; hair treated 5 cycles at 45° C. and at 130° C.)	Normalized area ([3]; bleached/permed hair, 12 heat cycles, 0.06 M)
O=C[C@H](O)[C@@H](O)[C@H](O)[C@H](O)CO [D-Glucose, reference compound]	11.65 +/− 4.98 J/g hair	11.65 +/− 4.98 J/g hair	7.60 +/− 1.01 J/g hair	7.60 +/− 1.01 J/g hair	913.9 +/− 158.2 J/m^2	864.7 +/− 184.4 J/m^2	56.01 +/− 7.21%	913.9 +/− 158.2 J/m^2	2,599 +/− 604 J/m^2	4,623 +/− 813 MN/m^2	984.6 +/− 169.6 J/m^2	4.96 +/− 0.32 J/g hair	–	–	–	–	–
O=C[C@H](O)[C@@H](O)[C@H](O)CO [D-Xylose]	20.17 +/− 11.98 J/g hair	20.17 +/− 11.98 J/g hair	15.27 +/− 5.14 J/g hair	15.27 +/− 5.14 J/g hair	1,204 +/− 215 J/m^2	1,051 +/− 191 J/m^2	55.28 +/− 7.08%	1,204 +/− 215 J/m^2	3,161 +/− 771 J/m^2	5,802 +/− 1,161 MN/m^2	1,182 +/− 215 J/m^2	9.78 +/− 1.48 J/g hair	16.05 +/− 5.05 J/g hair	12.74 +/− 2.32 J/g hair	appeared to protect the hair structure	improved protection both at 45 °C and at 130 °C	9.78 +/− 1.48 J/g hair
